Target: T1, UGT1A1 (Homo sapiens, UniProt P22309)
T1 construct: using pooled human liver microsomes; tissue BD Gentest Co. H161; host or cells: pooled human liver microsomes
T1 sequence (P22309 26-533): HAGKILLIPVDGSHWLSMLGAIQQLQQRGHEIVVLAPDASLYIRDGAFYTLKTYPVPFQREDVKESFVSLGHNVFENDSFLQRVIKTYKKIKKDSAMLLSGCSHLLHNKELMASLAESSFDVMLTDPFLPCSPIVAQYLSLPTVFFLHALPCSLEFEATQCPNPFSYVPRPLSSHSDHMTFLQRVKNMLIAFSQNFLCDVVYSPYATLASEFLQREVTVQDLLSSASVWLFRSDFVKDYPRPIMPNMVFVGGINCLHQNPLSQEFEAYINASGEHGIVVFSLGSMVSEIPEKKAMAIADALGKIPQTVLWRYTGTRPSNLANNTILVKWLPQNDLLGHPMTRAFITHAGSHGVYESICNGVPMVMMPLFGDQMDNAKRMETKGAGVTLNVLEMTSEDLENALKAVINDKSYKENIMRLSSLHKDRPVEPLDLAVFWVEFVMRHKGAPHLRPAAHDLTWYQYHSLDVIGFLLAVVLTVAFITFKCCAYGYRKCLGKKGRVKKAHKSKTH
Experiment: UGT1A1 17β-estradiol 3-glucuronidation inhibition in pooled human liver microsomes
Type: in vitro ADME
Description: The inhibitory potencies (IC50 values) of corydaline were also determined with UGT assays in the presence and absence of corydaline (final concentrations of 1–1,000 μM with acetonitrile concentration less than 0.5% v/v) using pooled human liver microsomes. 17β-Estradiol 3-glucuronidation, trifluoperazine glucuronidation, propofol glucuronidation, and azidothymidine glucuronidation activities were determined as probe activities for UGT1A1, UGT1A4, UGT1A9, and UGT2B7, respectively, using LC/MS/MS. Incubation mixtures were prepared in a total volume of 100 μL, as follows: Pooled human liver microsomes (0.2 mg/mL for 17β-estradiol, trifluoperazine and azidothymidine; 0.1 mg/mL for propofol), 2 mM UDPGA, 25 μg/mL alamethicin, 10 mM MgCl2, 50 mM tris buffer (pH 7.4), UGT-isoform specific probe substrate (20 μM 17β-estradiol for UGT1A1, 5 μM trifluoperazine for UGT1A4, 10 μM propofol for UGT1A9, or 100 μM azidothymidine for UGT2B7), and various concentrations of corydaline (1−1000 μM). Reactions were initiated by addition of UDPGA, and incubations were carried out at 37 °C in a shaking water bath for 30 min. […]
Glucuronides produced from UGT isoform-specific substrates were respectively determined by LC/MS/MS. […] Quantification was performed by SRM of the [M+H]^+ ion for trifluoperazine glucuronide and azidothymidine glucuronide or [M−H]^− for 17β-estradiol 3-glucuronide and propofol glucuronide and the related product ion for each metabolite.
Reactions were initiated by addition of NADPH at 37 °C and stopped after 15 min by placement of the incubation tubes on ice and addition of ice-cold methanol (100 μL) containing an internal standard (2.0 μg/mL ^13C6-4-hydroxydiclofenac for diclofenac, 0.5 μg/mL d3-4-hydroxymephenytoin for mephenytoin, or 0.5 μg/mL d9-1-hydroxy-bufuralol for bufuralol). The incubation mixtures were centrifuged at 13,000 × g for 5 min, and aliquots (5 μL) of the supernatants were analyzed by LC/MS/MS. […] Aliquots (5 μL) were analyzed by LC/MS/MS. […]

SMILES: COc1cc2c(cc1OC)C1C(C)c3ccc(OC)c(OC)c3CN1CC2 (stereo not drawn) [Corydaline, 2,3,9,10-tetramethoxy-13-methyl-5,8,13,13a-tetrahydro-6H-isoquino[3,2-a]isoquinoline]
- Ki (human liver microsomes, 10-80 μM 17β-estradiol, mixed competitive-noncompetitive equation): 57.6 ± 13 µM
- α (mix of competitive and noncompetitive mechanisms), UGT1A1 17β-estradiol 3-glucuronidation (mixed competitive-noncompetitive equation, nonlinear regression): 0.555
- IC50 (pooled human liver microsomes (H161), 20 μM 17β-estradiol, mean ± SD, n = 3): 137 ± 16.2 µM

From article PMC6264278, “Corydaline Inhibits Multiple Cytochrome P450 and UDP-Glucuronosyltransferase Enzyme Activities in Human Liver Microsomes” (Molecules, 2011)
